Here are results for 21 compounds from patent US12152016B2, “Aryl hydrocarbon receptor modulators and uses thereof” (Beth Israel Deaconess Medical Center, Inc., priority 2018, dated 2024).

Data set [1] concerns AHR-dependent transcription of the CYP1A1 gene. Briefly: CYP1A1 induction in mouse macrophages. It is filed as cell-based. Here is the method:
(§1) Mouse macrophages were also used to test AHR-dependent transcription of the CYP1A1 gene in vivo. Finally, the activity of exemplary compounds of Formula (I) described herein was tested in the human […] cell line U937. The U937 cell line is derived from a patient with diffuse histiocytic lymphoma. Tables 2-4 summarize structure-activity relationship data collected for exemplary, non-limiting compounds of Formula (I) described herein.

The target of data set [2] is T1, aryl hydrocarbon receptor (AHR) (Homo sapiens, UniProt P35869).
T1 sequence (P35869 11-848): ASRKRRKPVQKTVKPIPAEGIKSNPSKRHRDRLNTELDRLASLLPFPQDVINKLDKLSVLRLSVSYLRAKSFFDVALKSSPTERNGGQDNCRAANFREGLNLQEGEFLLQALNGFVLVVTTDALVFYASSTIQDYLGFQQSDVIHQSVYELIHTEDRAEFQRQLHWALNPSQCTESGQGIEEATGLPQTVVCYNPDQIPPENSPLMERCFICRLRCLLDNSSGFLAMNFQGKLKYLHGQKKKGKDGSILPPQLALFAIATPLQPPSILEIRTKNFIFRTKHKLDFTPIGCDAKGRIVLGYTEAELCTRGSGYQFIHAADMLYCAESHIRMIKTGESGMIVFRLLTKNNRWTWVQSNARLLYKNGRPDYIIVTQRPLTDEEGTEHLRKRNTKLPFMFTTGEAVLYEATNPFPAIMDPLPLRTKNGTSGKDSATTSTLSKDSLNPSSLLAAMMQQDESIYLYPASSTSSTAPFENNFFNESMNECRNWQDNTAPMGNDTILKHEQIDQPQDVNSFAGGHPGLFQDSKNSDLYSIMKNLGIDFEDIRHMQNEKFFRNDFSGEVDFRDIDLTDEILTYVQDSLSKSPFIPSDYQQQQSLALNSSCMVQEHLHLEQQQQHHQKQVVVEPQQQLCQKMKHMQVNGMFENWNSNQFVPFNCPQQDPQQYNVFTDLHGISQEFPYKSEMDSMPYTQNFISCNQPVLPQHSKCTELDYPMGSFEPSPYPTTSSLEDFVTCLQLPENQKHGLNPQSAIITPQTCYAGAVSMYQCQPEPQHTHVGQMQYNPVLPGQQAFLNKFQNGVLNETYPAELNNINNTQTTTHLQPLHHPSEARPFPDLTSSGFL
The data set is described as follows: XRE-driven luciferase reporter assay, human HepG2. The settings on record: for XRE luciferase Emax (fold): fold over vehicle; for XRE luciferase Emax (footnote c): Emax defined as fold increase at highest concentration tested (10 μM); for fold less active / fold decrease in activity: AHR activity relative to compound #10. On the technique in general: A reporter such as luciferase makes a cellular process visible.
Experimental: The Human HepG2 cell line is a human liver cancer cell line, and provide a relevant in vitro AHR activity model. These Hep2G cells have been modified to stably express an AHR-responsive (XRE) firefly luciferase reporter gene to give Hep2G-XRE cells. The expression of luciferase should primarily reflect AHR-dependent transcription controlled by XRE.
Transfected cells were treated with AhR agonist (10^−5-10^−12) for 4.5 h in full medium. Cells were lysed and luciferase was activated using the Luciferase Assay System (Promega). Luminescence signals were measured with a FluroStar Omega microplate reader. Luminescence signals of compound treated groups were normalized to vehicle (DMSO) treated control and plotted as concentration dependent fold changes.

For data set [3], the system named is AHR-dependent transcription of the CYP1A1 gene. Briefly: CYP1A1 induction in human U937 cells. The data set is classed as cell-based. The settings on record: Human U937, 1 μM. On the procedure: as §1
Data set [4] in a line: Liver microsomal stability (LCMS/MS). It is filed as in vitro ADME. The conditions noted are these: in the presence of liver microsomes. On the technique in general: Liver microsomes are a subcellular fraction often used to study metabolism.
Data set [5] can be described thus: Plasma stability (LCMS/MS). It is filed as in vitro ADME. The settings on record: incubated in plasma.
Where [6] appears, read: XRE luciferase EC50, Human HepG2, least square curve fitting, >10,000 = does not reach 50% of Emax of ITE at 10 μM (highest concentration tested).
Where [7] appears, read: XRE luciferase EC50 (footnote a), Human HepG2, EC50 defined as concentration induced 50% of Emax of ITE.

A word on the EC50: it is the concentration giving half of the maximal effect. Lower therefore signals an effect from little substance. Take `COc1cccc(C(=O)c2c[nH]c3ccccc23)n1` [Compound 5]: the “CYP1A1 induction (% of ITE ± SEM)” value in data set [1] (5 nM) is reported as 57 ± 22 % of ITE; in data set [1] (50 nM), 168 ± 86 % of ITE; in data set [1] (5 μM), 101 ± 33 % of ITE; in data set [3] it was 165 ± 27 % of ITE. Further, the “XRE luciferase Emax (fold)” value in data set [2] (Human HepG2) was determined as 48 fold. Also, the response in data set [2] (setting [6]) was half-maximal at 96 nM (EC50).
With `COc1cccc(C(=O)c2c[nH]c3ccccc23)c1` [Compound 9], the results for the “CYP1A1 induction (% of ITE ± SEM)” value in data set [1] (50 nM) and in data set [3] were 9 ± 5 % of ITE and 101 ± 12 % of ITE, respectively. Further, in data set [2] (Human HepG2), the “XRE luciferase Emax (footnote c)” value is “(25)^c fold”. The EC50 in data set [2] (setting [6]) was greater than 10000 nM.
For `COC(=O)c1cccc(C(=O)c2c[nH]c3cc(Cl)ccc23)n1` [Compound 16], the “CYP1A1 induction (% of ITE ± SEM)” value in data set [1] (50 nM) was 169 ± 59 % of ITE; in data set [1] (5 μM) it was 122 ± 48 % of ITE. Besides, in data set [2] (Human HepG2), the “XRE luciferase Emax (footnote c)” value was “(141)^c fold”. The EC50 in data set [2] (setting [7]) is 1.6 nM.
Turning to `COC(=O)c1cccc(C(=O)c2c[nH]c3c(Cl)cccc23)n1` [Compound 17], in data set [1] (50 nM), the “CYP1A1 induction (% of ITE ± SEM)” value was 49 ± 19 % of ITE. Besides, the “XRE luciferase Emax (fold)” value in data set [2] (Human HepG2) is 68 fold. In data set [2] (setting [6]), the EC50 was 1.3 nM.
The like results for `COC(=O)c1cccc(C(=O)c2c[nH]c3ncccc23)n1` [Compound 18] were, in that order, 11 ± 4 % of ITE, 42 fold and 18 nM.
In the case of `COC(=O)c1cccc(C(=O)c2c[nH]c3ccc(OC)cc23)n1` [Compound 19], the “CYP1A1 induction (% of ITE ± SEM)” value in data set [1] (50 nM) is 121 ± 12 % of ITE; in data set [1] (5 μM), 120 ± 13 % of ITE. In addition, the “XRE luciferase Emax (fold)” value in data set [2] (Human HepG2) amounted to 131 fold. In data set [2] (setting [6]), this compound returned an EC50 of 1800 nM.
As for `COC(=O)c1cccc(C(=O)c2c[nH]c3ccc(Br)cc23)n1` [Compound 20], the “CYP1A1 induction (% of ITE ± SEM)” value was 138 ± 8 % of ITE in data set [1] (50 nM) and 144 ± 20 % of ITE in data set [1] (5 μM). Moreover, the “XRE luciferase Emax (fold)” value in data set [2] (Human HepG2) amounted to 55 fold. Moreover, the 50% effective concentration (EC50) in data set [2] (setting [6]) is 6.2 nM.
The like results for `COC(=O)c1cccc(C(=O)c2c[nH]c3c4c(ccc23)CCC4)n1` [Compound 21] were, in that order, 129 ± 8 % of ITE, 118 ± 5 % of ITE, 53 fold and 27 nM.
With `COC(=O)c1cccc(C(=O)c2c[nH]c3c2ccc2ccccc23)n1` [Compound 22], the entries for the “CYP1A1 induction (% of ITE ± SEM)” value in data set [1] (50 nM) and in data set [1] (5 μM) were 57 ± 5 % of ITE and 105 ± 3 % of ITE, respectively. In data set [2] (Human HepG2), the “XRE luciferase Emax (footnote c)” value was “(121)^c fold”. In data set [2] (setting [7]), this compound came in with an EC50 of 14 nM.
As to `COC(=O)c1ccc(C(=O)c2c[nH]c3ccccc23)cn1` [Compound 23], the “CYP1A1 induction (% of ITE ± SEM)” value in data set [1] (5 μM) is 65 ± 9 % of ITE. The “XRE luciferase Emax (fold)” value in data set [2] (Human HepG2) is recorded as 74 fold. In addition, the EC50 in data set [2] (setting [6]) was found to be 4700 nM.
For `COC(=O)c1ccc(C(=O)c2c[nH]c3ccccc23)s1` [Compound 24], the “CYP1A1 induction (% of ITE ± SEM)” value in data set [1] (5 nM) was 60 ± 13 % of ITE; in data set [1] (50 nM), 99 ± 18 % of ITE; in data set [1] (5 μM), 59 ± 22 % of ITE; in data set [3] it was 244 ± 28 % of ITE.
Turning to `COc1cc(C(=O)c2c[nH]c3ccccc23)ccn1` [Compound 29], the “CYP1A1 induction (% of ITE ± SEM)” value in data set [1] (5 μM) is 44 ± 2 % of ITE. Moreover, the “XRE luciferase Emax (fold)” value in data set [2] (Human HepG2) was 65 fold. The EC50 in data set [2] (setting [6]) is 2600 nM.
For `COc1cnc(C(=O)c2c[nH]c3ccccc23)cn1` [Compound 30], in data set [1] (5 μM), the “CYP1A1 induction (% of ITE ± SEM)” value is 41 ± 3 % of ITE. Also, in data set [2] (Human HepG2), the “XRE luciferase Emax (footnote c)” value is given as “(30)^c fold”. For the same compound, the EC50 in data set [2] (setting [7]) was 8.1 nM.
Consider `O=C(c1cccc(N2CCOCC2)n1)c1c[nH]c2ccccc12` [Compound 110, 1H-indol-3-yl-(6-morpholino-2-pyridyl)methanone], for which the “CYP1A1 induction (% of ITE ± SEM)” value in data set [1] (5 μM) is reported as 46 ± 4 % of ITE. Besides, the “fold less active / fold decrease in activity” value in data set [2] is on record as roughly 20 fold. In addition, the “XRE luciferase Emax (fold)” value in data set [2] (Human HepG2) came to 59 fold. This compound also gave an EC50 in data set [2] (setting [6]) of 62 nM.
Take `O=C(c1cccc(-c2ccccc2)n1)c1c[nH]c2ccccc12` [Compound 113, 1H-indol-3-yl-(6-phenyl-2-pyridyl)methanone]: the figures for the “CYP1A1 induction (% of ITE ± SEM)” value in data set [1] (50 nM) and in data set [1] (5 μM) were 91 ± 7 % of ITE and 97 ± 9 % of ITE, respectively. Also, the liver microsomal stability entry in data set [4] is recorded as “rapidly metabolized”. The “XRE luciferase Emax (footnote c)” value in data set [2] (Human HepG2) is recorded as “(114)^c fold”. Besides, the values for the EC50 in data set [2] (setting [7]) and in data set [2] (setting [6]) were 12.1 nM and 12 nM, respectively. In addition, the plasma stability result in data set [5] was “stable”.
In the case of `O=C(c1ccccn1)c1c[nH]c2ccccc12` [Compound 124, 1H-indol-3-yl(2-pyridyl)methanone], the “CYP1A1 induction (% of ITE ± SEM)” value in data set [1] (5 μM) is 15 ± 6 % of ITE. Further, the “XRE luciferase Emax (fold)” value in data set [2] (Human HepG2) was found to be 20 fold. In data set [2] (setting [6]), the EC50 is greater than 10000 nM.
As for `COC(=O)c1cccc(C(=O)c2c(C)[nH]c3ccccc23)n1` [Compound 144, methyl 6-(2-methyl-1H-indole-3-carbonyl)pyridine-2-carboxylate], the “CYP1A1 induction (% of ITE ± SEM)” value is 6 ± 2 % of ITE in data set [1] (5 μM) and 29 ± 14 % of ITE in data set [3]. Further, the “XRE luciferase Emax (footnote c)” value in data set [2] (Human HepG2) is recorded as “(22)^c fold”. This compound gave an EC50 in data set [2] (setting [6]) greater than 10000 nM.
`CCOC(=O)c1cccc(C(=O)c2c[nH]c3ccccc23)n1` [Compound 147, ethyl 6-(1H-indole-3-carbonyl)pyridine-2-carboxylate]: the “CYP1A1 induction (% of ITE ± SEM)” value in data set [1] (50 nM) is recorded as 8 ± 2 % of ITE; in data set [1] (5 μM), 52 ± 28 % of ITE. Moreover, the “fold less active / fold decrease in activity” value in data set [2] is greater than 250 fold. Moreover, the “XRE luciferase Emax (fold)” value in data set [2] (Human HepG2) came out at 40 fold. The compound also displayed an EC50 in data set [2] (setting [6]) of 840 nM.
With `COC(=O)c1cccc(C(=O)c2c[nH]c3ccccc23)c1` [Compound 202, methyl 3-(1H-indole-3-carbonyl)benzoate], the “CYP1A1 induction (% of ITE ± SEM)” value in data set [3] is on record as 3 ± 1 % of ITE.
As for `COC(=O)c1cccc(C(=O)c2n[nH]c3ccccc23)c1` [reference compound], the “CYP1A1 induction (% of ITE ± SEM)” value in data set [1] (50 nM) was 14 ± 4 % of ITE; in data set [1] (5 μM), 90 ± 2 % of ITE; in data set [3] it was 48 ± 6 % of ITE. Also, in data set [2] (Human HepG2), the “XRE luciferase Emax (fold)” value is 117 fold. In data set [2] (setting [6]), this compound registered an EC50 of 680 nM.
Regarding `COc1cccc(C(=O)c2n[nH]c3ccccc23)c1` [reference compound], the “CYP1A1 induction (% of ITE ± SEM)” value in data set [1] (50 nM) is on record as 1 ± 0.2 % of ITE; in data set [1] (5 μM), 27 ± 3 % of ITE; in data set [3], 194 ± 18 % of ITE. In addition, the “XRE luciferase Emax (footnote c)” value in data set [2] (Human HepG2) is “(87)^c fold”. The compound further returned an EC50 in data set [2] (setting [7]) of 2000 nM.
